{"source": "DBAASP", "test_in_all_cases": "≥ marks a high value that may be exact or a test limit, other limits are often not marked, values filed in µg/mL are converted to µM", "key": {"[1]": {"system": "Escherichia coli ATCC 25922"}, "[2]": {"system": "Staphylococcus aureus MRSA-G"}, "[3]": {"system": "Staphylococcus aureus MRSA-16"}, "[4]": {"system": "Staphylococcus aureus ATCC 25923"}, "[5]": {"system": "Enterococcus faecalis 981"}, "[6]": {"system": "Candida albicans ATCC 10231"}, "[7]": {"system": "Nocardia asteroides 201118"}, "[8]": {"system": "Enterobacter cloacae CGMCC 1.57"}, "[9]": {"system": "Enterococcus faecium 091299"}, "Candida glabrata 090902": {"system": "Candida glabrata 090902"}, "[10]": {"system": "Klebsiella pneumoniae 08040724"}, "[11]": {"system": "Psychrobacter faecalis X29"}, "[12]": {"system": "Pseudomonas aeruginosa Pa4-SA2"}, "[13]": {"system": "Klebsiella pneumoniae ATCC 700603"}, "[14]": {"system": "Pseudomonas aeruginosa PA006"}, "[15]": {"system": "Pseudomonas aeruginosa Pa1-SA2"}, "[16]": {"system": "Staphylococcus aureus ATCC 29313"}, "[17]": {"system": "Salmonella enterica subsp. enterica serovar Typhimurium ATCC 14028"}, "[18]": {"system": "Pseudomonas aeruginosa ATCC 27853"}, "[19]": {"system": "Pseudomonas aeruginosa PAO1"}, "[20]": {"system": "Pseudomonas aeruginosa 0108"}, "[21]": {"system": "Pseudomonas aeruginosa CGMCC 1.860"}, "Escherichia coli": {"system": "Escherichia coli"}, "[22]": {"system": "Staphylococcus epidermidis"}, "[23]": {"system": "Staphylococcus aureus A170"}, "Salmonella typhimurium": {"system": "Salmonella typhimurium"}, "Vibrio alginolyticus": {"system": "Vibrio alginolyticus"}, "Vibrio anguillarum": {"system": "Vibrio anguillarum"}, "Vibrio parahaemolyticus": {"system": "Vibrio parahaemolyticus"}, "Vibrio fluvialis": {"system": "Vibrio fluvialis"}, "Staphylococcus aureus": {"system": "Staphylococcus aureus"}, "Candida parapsilosis": {"system": "Candida parapsilosis"}, "[24]": {"system": "Cryptococcus neoformans L30"}, "[25]": {"system": "Cryptococcus neoformans L26"}, "Trichophyton rubrum": {"system": "Trichophyton rubrum"}, "Candida albicans 38U": {"system": "Candida albicans 38U"}, "Candida albicans 01U": {"system": "Candida albicans 01U"}, "[26]": {"system": "Trichophyton mentagrophytes"}}, "note": "Several values for one entry are separate records, joined by “and”; a condition that tells them apart may be missing. Identical values can stand only once.", "data": [{"smiles": "CC[C@H](C)[C@H](NC(=O)[C@H](C)NC(=O)[C@H](CCCCN)NC(=O)[C@@H](NC(=O)CNC(=O)CNC(=O)[C@H](Cc1c[nH]c2ccccc12)NC(=O)[C@H](Cc1ccccc1)NC(=O)[C@H](CCCCN)NC(=O)[C@H](CCCCN)NC(=O)[C@H](Cc1ccccc1)NC(=O)[C@@H](N)Cc1ccccc1)C(C)C)C(=O)N[C@@H](Cc1ccccc1)C(=O)N[C@@H](CCCCN)C(=O)NCC(=O)N[C@@H](C)C(=O)N[C@@H](CCCN=C(N)N)C(=O)N[C@@H](CCCCN)C(=O)NCC(=O)N[C@@H](Cc1c[nH]c2ccccc12)C(=O)N[C@@H](CCCCN)C(=O)O", "note": "[FFKKFWGGVKAIFKGARKGWK]", "values": [{"measurement": "MIC", "setting": "[1]", "value": "2 µM and > 1 µM"}, {"measurement": "MIC", "setting": "[2]", "value": 4, "unit": "µM"}, {"measurement": "MIC", "setting": "[3]", "value": 4, "unit": "µM"}, {"measurement": "MIC", "setting": "[4]", "value": "4 µM and > 2 µM"}]}, {"smiles": "CC[C@H](C)[C@H](NC(=O)CNC(=O)[C@@H](NC(=O)[C@H](C)NC(=O)[C@H](C)NC(=O)[C@H](CCCCN)NC(=O)[C@@H](NC(=O)[C@H](CC(C)C)NC(=O)CNC(=O)[C@@H]1CCCN1C(=O)[C@H](CC(C)C)NC(=O)[C@@H](N)Cc1ccccc1)[C@@H](C)CC)C(C)C)C(=O)NCC(=O)N[C@@H](CO)C(=O)N[C@H](C(=O)N[C@H](C(=O)N[C@@H](Cc1ccccc1)C(=O)N[C@H]1CSSC[C@@H](C(=O)O)NC(=O)[C@H](CCCCN)NC(=O)[C@H](CCCCN)NC(=O)[C@H](CO)NC(=O)[C@H]([C@@H](C)CC)NC(=O)[C@H](CCCCN)NC1=O)[C@@H](C)CC)[C@@H](C)O", "note": "[FLPGLIKAAVGIGSTIFCKISKKC]", "values": [{"measurement": "MIC", "setting": "[5]", "value": 3.1, "unit": "µM"}, {"measurement": "MIC", "setting": "[1]", "value": 100, "unit": "µM"}, {"measurement": "MIC", "setting": "[6]", "value": 50, "unit": "µM"}, {"measurement": "MIC", "setting": "[7]", "value": 3.1, "unit": "µM"}, {"measurement": "MIC", "setting": "[4]", "value": 6.3, "unit": "µM"}, {"measurement": "MIC", "setting": "[8]", "value": "≥ 100", "unit": "µM"}, {"measurement": "MIC", "setting": "[9]", "value": "≥ 100", "unit": "µM"}, {"measurement": "MIC", "setting": "Candida glabrata 090902", "value": 6.3, "unit": "µM"}, {"measurement": "MIC", "setting": "[10]", "value": "≥ 100", "unit": "µM"}, {"measurement": "MIC", "setting": "[11]", "value": 25, "unit": "µM"}]}, {"smiles": "CC[C@H](C)[C@H](NC(=O)[C@H](CCCCN)NC(=O)CNC(=O)[C@H](CCSC)NC(=O)[C@H](C)NC(=O)[C@H](Cc1cnc[nH]1)NC(=O)[C@H](C)NC(=O)[C@@H](NC(=O)[C@H](CC(C)C)NC(=O)[C@H](CCC(N)=O)NC(=O)[C@H](CCCN=C(N)N)NC(=O)CNC(=O)[C@H](C)NC(=O)[C@H](CC(=O)O)NC(=O)[C@H](CCCCN)NC(=O)[C@@H](NC(=O)[C@@H](NC(=O)[C@H](CC(=O)O)NC(=O)[C@H](Cc1ccccc1)NC(=O)[C@@H](NC(=O)CN)C(C)C)[C@@H](C)CC)[C@@H](C)CC)C(C)C)C(=O)N[C@@H](C)C(=O)N[C@@H](CCC(=O)O)C(=O)N[C@@H](CCCCN)C(=O)N[C@H](C(N)=O)C(C)C", "note": "[GVFDIIKDAGRQLVAHAMGKIAEKV]", "values": [{"measurement": "MIC", "setting": "[12]", "value": "≥ 48", "unit": "µM"}, {"measurement": "MIC", "setting": "[1]", "value": 300, "unit": "µM"}, {"measurement": "MIC", "setting": "[13]", "value": "> 300", "unit": "µM"}, {"measurement": "MIC", "setting": "[14]", "value": 12, "unit": "µM"}, {"measurement": "MIC", "setting": "[15]", "value": "≥ 96", "unit": "µM"}, {"measurement": "MIC", "setting": "[16]", "value": "≥ 300", "unit": "µM"}, {"measurement": "MIC", "setting": "[17]", "value": "> 300", "unit": "µM"}, {"measurement": "MIC", "setting": "[18]", "value": "> 192", "unit": "µM"}, {"measurement": "MIC", "setting": "[19]", "value": 192, "unit": "µM"}]}, {"smiles": "CC[C@H](C)[C@H](N)C(=O)N[C@@H](CCCCN)C(=O)N[C@@H](CCCCN)C(=O)N[C@H](C(=O)N[C@@H](Cc1c[nH]c2ccccc12)C(=O)N[C@@H](CO)C(=O)N[C@@H](CCCCN)C(=O)N[C@H](C(=O)N[C@@H](CCCCN)C(=O)N[C@@H](CCCCN)C(=O)N[C@@H](CC(C)C)C(=O)N[C@@H](CC(C)C)C(=O)N[C@@H](CCCCN)C(N)=O)[C@@H](C)CC)[C@@H](C)CC", "note": "[IKKIWSKIKKLLK]", "values": [{"measurement": "MIC", "setting": "[20]", "value": 12.5, "unit": "µM"}, {"measurement": "MIC", "setting": "[21]", "value": 6.25, "unit": "µM"}]}, {"smiles": "CC[C@H](C)[C@H](NC(=O)[C@@H]1CCCN1C(=O)[C@H](CC(C)C)NC(=O)[C@@H](N)CC(C)C)C(=O)N[C@H](C(=O)NCC(=O)N[C@@H](CC(N)=O)C(=O)N[C@@H](CC(C)C)C(=O)N[C@@H](CC(C)C)C(=O)N[C@@H](CCCCN)C(=O)N[C@@H](CO)C(=O)N[C@@H](CC(C)C)C(=O)N[C@@H](CC(C)C)C(=O)O)C(C)C", "note": "[LLPIVGNLLKSLL]", "values": [{"measurement": "MIC", "setting": "Escherichia coli", "value": "> 71.8", "unit": "µM"}, {"measurement": "MIC", "setting": "[22]", "value": 21.5, "unit": "µM"}, {"measurement": "MIC", "setting": "[23]", "value": 17.9, "unit": "µM"}, {"measurement": "MIC", "setting": "Salmonella typhimurium", "value": "≥ 71.8", "unit": "µM"}]}, {"smiles": "CSCC[C@H](NC(=O)[C@H](CO)NC(=O)[C@H](CC(C)C)NC(=O)[C@H](Cc1cnc[nH]1)NC(=O)[C@H](CO)NC(=O)[C@@H](N)CCC(N)=O)C(=O)N[C@H]1CSSC[C@@H](C(=O)N[C@@H](CCCCN)C(=O)N[C@@H](Cc2ccccc2)C(=O)O)NC(=O)[C@@H]2CSSC[C@@H]3NC(=O)[C@@H]4CSSC[C@H](NC(=O)[C@H](Cc5ccc(O)cc5)NC(=O)[C@H](CCCN=C(N)N)NC1=O)C(=O)N[C@@H](CSSC[C@H](NC(=O)CNC(=O)[C@H](CCCCN)NC(=O)[C@H](CC(N)=O)NC(=O)[C@H](CC(N)=O)NC(=O)[C@H](CCCN=C(N)N)NC3=O)C(=O)NCC(=O)N[C@@H](Cc1ccccc1)C(=O)N2)C(=O)N[C@@H](CC(N)=O)C(=O)N4", "note": "[QSHLSMCRYCCNCCRNNKGCGFCCKF]", "values": [{"measurement": "MIC", "setting": "Escherichia coli", "value": 50, "unit": "µM"}, {"measurement": "MIC", "setting": "Vibrio alginolyticus", "value": "≥ 50", "unit": "µM"}, {"measurement": "MIC", "setting": "Vibrio anguillarum", "value": "≥ 50", "unit": "µM"}, {"measurement": "MIC", "setting": "Vibrio parahaemolyticus", "value": "≥ 50", "unit": "µM"}, {"measurement": "MIC", "setting": "Vibrio fluvialis", "value": 25, "unit": "µM"}, {"measurement": "MIC", "setting": "Staphylococcus aureus", "value": 50, "unit": "µM"}]}, {"smiles": "CC[C@H](C)[C@H](NC(=O)[C@H](CC(C)C)NC(=O)[C@H](CCC(=O)O)NC(=O)[C@H](CO)NC(=O)[C@H](CCCN=C(N)N)NC(=O)[C@@H](N)CO)C(=O)N[C@H](C(=O)N[C@@H](Cc1cnc[nH]1)C(=O)N[C@@H](CCC(N)=O)C(=O)N[C@@H](CCCN=C(N)N)C(=O)N[C@@H](CCSC)C(=O)N[C@@H](CCCCN)C(N)=O)C(C)C", "note": "[SRSELIVHQRMK]", "values": [{"measurement": "MIC", "setting": "Candida parapsilosis", "value": "≥ 173", "unit": "µM"}, {"measurement": "MIC", "setting": "[24]", "value": "≥ 173", "unit": "µM"}, {"measurement": "MIC", "setting": "[25]", "value": "≥ 173", "unit": "µM"}, {"measurement": "MIC", "setting": "Trichophyton rubrum", "value": 21.6, "unit": "µM"}, {"measurement": "MIC", "setting": "Candida albicans 38U", "value": 21.6, "unit": "µM"}, {"measurement": "MIC", "setting": "Candida albicans 01U", "value": 21.6, "unit": "µM"}, {"measurement": "MIC", "setting": "[26]", "value": "≥ 173", "unit": "µM"}]}]}
